Several values for one entry are separate records, joined by “and”; a condition that tells them apart may be missing. Equal entries are not always repeated.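 The compound was tested at five concentrations on cells cultured in 96-well plates, with a 48-hour exposure period. GI50 is the concentration that inhibits growth by half. TGI denotes the concentration required for complete inhibition of growth.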
Experiments:
Assay in all cases: inhibition of tumour cell growth, NCI panel, 48 h
MOLT-4 leukemia = test system: MOLT-4 leukemia
NCI/ADR-RES ovarian = test system: NCI/ADR-RES ovarian
SW-620 colon = test system: SW-620 colon
786-0 renal = test system: 786-0 renal
MDA-N = test system: MDA-N
HL-60(TB) leukemia = test system: HL-60(TB) leukemia
IGROV1 ovarian = test system: IGROV1 ovarian
MDA-MB-231 breast = test system: MDA-MB-231 breast
NCI-H23 lung = test system: NCI-H23 lung
T-47D breast = test system: T-47D breast
CCRF-CEM leukemia = test system: CCRF-CEM leukemia
BT-549 breast = test system: BT-549 breast

COC(=O)CCCc1ccc2c(c1)CCC2
TGI (MOLT-4 leukemia): > 100 µM | TGI (NCI/ADR-RES ovarian): > 100 µM | TGI (SW-620 colon): > 100 µM | TGI (786-0 renal): > 100 µM | TGI (MDA-N): > 100 µM | TGI (HL-60(TB) leukemia): > 100 µM | TGI (IGROV1 ovarian): > 100 µM | TGI (MDA-MB-231 breast): > 100 µM | TGI (NCI-H23 lung): > 100 µM | TGI (T-47D breast): > 100 µM | TGI (CCRF-CEM leukemia): > 100 µM | TGI (BT-549 breast): > 100 µM

COC(=O)c1ccc(/C=C/C2=CC(=O)C=CC2=O)cc1
TGI (MOLT-4 leukemia): 7.11 µM | TGI (NCI/ADR-RES ovarian): 97.9 µM | TGI (SW-620 colon): 48 µM | TGI (786-0 renal): 26.1 µM | TGI (MDA-N): > 100 µM | TGI (HL-60(TB) leukemia): 5.9 µM | TGI (IGROV1 ovarian): 39.1 µM | TGI (MDA-MB-231 breast): > 49.2 µM | TGI (NCI-H23 lung): 42.4 µM | TGI (T-47D breast): 33.5 µM | TGI (CCRF-CEM leukemia): 6.54 µM | TGI (BT-549 breast): 26.6 µM

CC(=O)OCC1OC(n2c(-c3ccccc3)c(N=Nc3ccc(Cl)cc3)c(C)c(C#N)c2=S)C(OC(C)=O)C(OC(C)=O)C1OC(C)=O (stereo not given)
TGI (MOLT-4 leukemia): 21.5 µM and > 100 µM | GI50 (NCI/ADR-RES ovarian): 6.76 µM and 33.2 µM | TGI (NCI/ADR-RES ovarian): > 100 µM | TGI (SW-620 colon): 34.6 µM and > 100 µM | TGI (786-0 renal): > 100 µM and 88.6 µM | TGI (MDA-N): > 100 µM | GI50 (HL-60(TB) leukemia): 23 µM and 8.03 µM | TGI (HL-60(TB) leukemia): > 100 µM | GI50 (IGROV1 ovarian): 7.17 µM and 29.9 µM | TGI (IGROV1 ovarian): > 100 µM | GI50 (MDA-MB-231 breast): 20.3 µM and 45.2 µM | TGI (MDA-MB-231 breast): > 100 µM | GI50 (NCI-H23 lung): 2.75 µM and 22.3 µM | TGI (NCI-H23 lung): 14.9 µM and > 100 µM | GI50 (T-47D breast): 6.86 µM and 27.2 µM | TGI (T-47D breast): 47.3 µM and > 100 µM | GI50 (CCRF-CEM leukemia): 4.1 µM and 13.7 µM | TGI (CCRF-CEM leukemia): 54.3 µM and > 100 µM | GI50 (BT-549 breast): 5.4 µM and 17.9 µM | TGI (BT-549 breast): 20.1 µM and 58.8 µM

O=[N+]([O-])c1ccccc1S(=O)(=O)N1CCCc2cc(Cl)ccc21
TGI (MOLT-4 leukemia): > 100 µM | TGI (NCI/ADR-RES ovarian): > 89.1 µM | TGI (SW-620 colon): > 100 µM | TGI (786-0 renal): > 100 µM | TGI (MDA-N): > 48.2 µM | TGI (HL-60(TB) leukemia): 72.2 µM | TGI (IGROV1 ovarian): > 100 µM | TGI (MDA-MB-231 breast): > 100 µM | TGI (NCI-H23 lung): > 100 µM | TGI (T-47D breast): 96.5 µM | TGI (CCRF-CEM leukemia): > 100 µM | TGI (BT-549 breast): > 100 µM

CC(C)=NN/C(=N\S(=O)(=O)c1cc(Cl)c(Oc2ccc([N+](=O)[O-])cc2Cl)c(Cl)c1)Nc1ccc(Cl)cc1
TGI (MOLT-4 leukemia): > 100 µM | TGI (NCI/ADR-RES ovarian): > 100 µM | TGI (SW-620 colon): > 100 µM | TGI (786-0 renal): > 100 µM | TGI (MDA-N): > 100 µM | TGI (HL-60(TB) leukemia): > 100 µM | TGI (IGROV1 ovarian): > 100 µM | TGI (MDA-MB-231 breast): > 100 µM | TGI (NCI-H23 lung): > 100 µM | TGI (T-47D breast): > 100 µM | TGI (CCRF-CEM leukemia): > 100 µM | TGI (BT-549 breast): > 100 µM

Cc1ccc(S(=O)/C=C(\NC(=O)OCc2ccccc2)C(F)(F)F)cc1 (stereo not given)
TGI (MOLT-4 leukemia): > 100 µM | TGI (NCI/ADR-RES ovarian): > 100 µM | TGI (SW-620 colon): > 100 µM | TGI (786-0 renal): > 100 µM | TGI (MDA-N): > 100 µM | TGI (HL-60(TB) leukemia): 42 µM | TGI (IGROV1 ovarian): > 100 µM | TGI (MDA-MB-231 breast): > 100 µM | TGI (NCI-H23 lung): > 100 µM | TGI (T-47D breast): > 100 µM | TGI (CCRF-CEM leukemia): 72.4 µM | TGI (BT-549 breast): > 100 µM

NC12c3c4cccc3Oc3cccc(c31)Oc1cccc(c12)O4
TGI (MOLT-4 leukemia): > 50 µM | TGI (NCI/ADR-RES ovarian): > 50 µM | TGI (SW-620 colon): > 50 µM | TGI (786-0 renal): > 50 µM | TGI (MDA-N): > 50 µM | TGI (HL-60(TB) leukemia): > 50 µM | TGI (IGROV1 ovarian): > 50 µM | TGI (MDA-MB-231 breast): > 50 µM | TGI (NCI-H23 lung): > 50 µM | TGI (T-47D breast): > 50 µM | TGI (CCRF-CEM leukemia): > 50 µM | TGI (BT-549 breast): > 50 µM

O=C(O)CCCN1CCCCC1
TGI (MOLT-4 leukemia): > 100 µM | TGI (NCI/ADR-RES ovarian): > 100 µM | TGI (SW-620 colon): > 100 µM | TGI (786-0 renal): > 100 µM | TGI (MDA-N): > 100 µM | TGI (IGROV1 ovarian): > 100 µM | TGI (MDA-MB-231 breast): > 100 µM | TGI (NCI-H23 lung): > 100 µM | TGI (T-47D breast): > 100 µM | TGI (CCRF-CEM leukemia): > 100 µM | TGI (BT-549 breast): > 100 µM

CC(=O)NC1C(OCC(=O)NC(C)C(=O)NC(CCC(=O)NCCCCCNc2ccc([N+](=O)[O-])c3[nH]c4ccccc4c(=O)c23)C(N)=O)C(O)C(CO)OC1(C)OCc1ccccc1 (stereo not given)
TGI (MOLT-4 leukemia): > 50 µM | TGI (NCI/ADR-RES ovarian): > 50 µM | TGI (SW-620 colon): > 50 µM | TGI (786-0 renal): > 50 µM | TGI (MDA-N): > 50 µM | TGI (IGROV1 ovarian): > 50 µM | TGI (MDA-MB-231 breast): 31.4 µM | TGI (NCI-H23 lung): > 50 µM | TGI (T-47D breast): > 50 µM | TGI (CCRF-CEM leukemia): > 50 µM | TGI (BT-549 breast): > 50 µM

NS(=O)(=O)c1ccc(CNC(=S)NC(=O)Nc2ccc(Cl)c(Cl)c2)cc1
TGI (MOLT-4 leukemia): 40.2 µM | TGI (NCI/ADR-RES ovarian): 41.1 µM | TGI (SW-620 colon): 44.7 µM | TGI (786-0 renal): 34.3 µM | TGI (MDA-N): 46.4 µM | TGI (IGROV1 ovarian): 50.5 µM | TGI (MDA-MB-231 breast): 25.5 µM | TGI (NCI-H23 lung): 30.2 µM | TGI (T-47D breast): 60.2 µM | TGI (CCRF-CEM leukemia): 43.4 µM | TGI (BT-549 breast): 34.7 µM

CCCCCCc1cc(C=O)sc1-c1ccc(-c2sc(-c3ccc(-c4ccc(-c5cc(CCCCCC)c(-c6ccc(-c7sc(C=O)cc7CCCCCC)s6)s5)s4)s3)cc2CCCCCC)s1
TGI (MOLT-4 leukemia): > 100 µM | TGI (NCI/ADR-RES ovarian): > 100 µM | TGI (SW-620 colon): > 100 µM | TGI (786-0 renal): > 100 µM | TGI (MDA-N): > 100 µM | TGI (HL-60(TB) leukemia): > 100 µM | TGI (IGROV1 ovarian): > 100 µM | TGI (MDA-MB-231 breast): > 100 µM | TGI (NCI-H23 lung): > 100 µM | TGI (T-47D breast): > 100 µM | TGI (CCRF-CEM leukemia): > 100 µM | TGI (BT-549 breast): > 100 µM

CC(C)(C)NCC(O)COc1cccc2[nH]c(C#N)cc12 (stereo not given)
TGI (MOLT-4 leukemia): > 100 µM | TGI (NCI/ADR-RES ovarian): > 100 µM | TGI (SW-620 colon): > 100 µM | TGI (786-0 renal): > 100 µM | TGI (MDA-N): > 100 µM | TGI (HL-60(TB) leukemia): > 100 µM | TGI (IGROV1 ovarian): > 100 µM | TGI (MDA-MB-231 breast): > 100 µM | TGI (NCI-H23 lung): > 100 µM | TGI (T-47D breast): > 100 µM | TGI (BT-549 breast): > 100 µM

CC1(C(O)c2ccccc2)CN(C(C)(C)C)C(=O)/C1=C\Sc1ccccc1 (stereo not given)
TGI (MOLT-4 leukemia): > 100 µM | TGI (NCI/ADR-RES ovarian): > 100 µM | TGI (SW-620 colon): > 100 µM | TGI (786-0 renal): > 100 µM | TGI (MDA-N): > 100 µM | TGI (HL-60(TB) leukemia): > 100 µM | TGI (IGROV1 ovarian): > 100 µM | TGI (MDA-MB-231 breast): > 100 µM | TGI (NCI-H23 lung): > 100 µM | TGI (T-47D breast): > 100 µM | TGI (CCRF-CEM leukemia): > 100 µM | TGI (BT-549 breast): > 100 µM

CCOc1ccc(N=NC2C(=O)N(C(=O)CC(=O)Nc3ccc(Cl)cc3)N=C2C)cc1 (stereo not given)
TGI (NCI/ADR-RES ovarian): > 100 µM | TGI (SW-620 colon): > 100 µM | TGI (786-0 renal): > 100 µM | TGI (MDA-N): > 100 µM | TGI (HL-60(TB) leukemia): > 100 µM | TGI (IGROV1 ovarian): > 100 µM | TGI (MDA-MB-231 breast): > 100 µM | TGI (NCI-H23 lung): > 100 µM | TGI (T-47D breast): > 100 µM | TGI (CCRF-CEM leukemia): > 100 µM | TGI (BT-549 breast): > 100 µM

S=C1c2cc(Cl)ccc2NC(=NC2CCCC2)C2CSCN12 (stereo not given)
TGI (MOLT-4 leukemia): > 100 µM | TGI (NCI/ADR-RES ovarian): > 100 µM | TGI (SW-620 colon): > 100 µM | TGI (786-0 renal): > 100 µM | TGI (MDA-N): > 100 µM | TGI (IGROV1 ovarian): > 100 µM | TGI (MDA-MB-231 breast): > 100 µM | TGI (NCI-H23 lung): > 100 µM | TGI (T-47D breast): > 100 µM | TGI (CCRF-CEM leukemia): > 100 µM | TGI (BT-549 breast): > 100 µM

CC(=O)C1=CC=C/C1=N\Nc1ccccc1
TGI (MOLT-4 leukemia): 29.6 µM | TGI (NCI/ADR-RES ovarian): > 100 µM | TGI (SW-620 colon): 15.6 µM | TGI (786-0 renal): 15.4 µM | TGI (MDA-N): 19.2 µM | TGI (HL-60(TB) leukemia): 5.5 µM | TGI (IGROV1 ovarian): 21.3 µM | TGI (MDA-MB-231 breast): 24.2 µM | TGI (NCI-H23 lung): 26.6 µM | TGI (T-47D breast): 18.3 µM | TGI (CCRF-CEM leukemia): 11.2 µM | TGI (BT-549 breast): 27.4 µM

Cc1[nH]n(C(=O)c2ccccc2O)c(=O)c1/C=C1\C(=O)C=Cc2ccccc21
TGI (MOLT-4 leukemia): > 100 µM | TGI (NCI/ADR-RES ovarian): 11 µM | TGI (SW-620 colon): > 100 µM | TGI (786-0 renal): 10.1 µM | TGI (MDA-N): > 100 µM | TGI (IGROV1 ovarian): 11.5 µM | TGI (MDA-MB-231 breast): 26.8 µM | TGI (NCI-H23 lung): 9.99 µM | TGI (T-47D breast): > 100 µM | TGI (CCRF-CEM leukemia): > 36.4 µM | TGI (BT-549 breast): 73 µM
